Data set [1] is described as follows: pKa measurement of cationic lipid (TNS fluorescence). In kind it is physicochemical. The following applies: probe TNS; pKa of the cationic lipid of formula (I); Table 4; read-out: pKa. The protocol:
Unless indicated otherwise, all pKa's referred to herein were measured at standard temperature and pressure. Also, unless otherwise indicated, all references to pKa are references to pKa measured using the following technique. 2 mM solution of lipid in ethanol was prepared by weighing the lipid and then dissolving it in ethanol. 0.3 mM solution of fluorescent probe TNS in ethanol:methanol 9:1 was prepared by first making 3 mM solution of TNS in methanol and then diluting to 0.3 mM with ethanol. An aqueous buffer containing 200 mM sodium phosphate dibasic and 100 mM citric acid was prepared. […] Using the Hamilton Microlab Star high throughput liquid handler and Hamilton run control software Software, 7.5 uL of probe/lipid mix were added to 242.5 uL of buffer in a 1 mL 96 well plate (model NUNC 260252, […] Nunc International). This was done with all twelve buffers. After mixing in 1 mL 96 well plate, 100 uL of each probe/lipid/buffer mixture was transferred to a 250 uL black with clear bottom 96 well plate (model COSTAR 3904, Corning). The fluorescence measurements are carried out on the SpectraMax M5 spectrophotometer using software SoftMax pro 5.2 and following parameters: After the measurement, the background fluorescence value of an empty well on the 96 well plate was subtracted from each probe/lipid/buffer mixture. The fluorescence intensity values were then normalized to the value at lowest pH. The normalized fluorescence intensity vs. pH chart was then plotted in the Microsoft Excel software. The twelve points were connected with a smooth line. The point on the line at which the normalized fluorescence intensity was equal to 0.5 was found. […] The pKa determined using this method is precise to about 0.1 pKa units.

In data set [2] the test system is plasma Factor VII enzyme activity. The experiment in a line: Mouse Factor VII dosing / Factor VII Activity Assay. The class given is in vivo. The following applies: percent knock down of plasma Factor VII activity, CD-1 mice, 48 h; for KD FVII 0.03 mg/kg: single IV dose 0.03 mg/kg. The procedure: Female CD-1 mice were received from Harlan Labs and maintained on standard lab chow and water ad libitum. The animals weighed approximately 25 grams at time of dosing. Formulated Factor VII siRNA was administered as a single dose intravenously via the lateral tail vein. Approximately 48 hours after injection, the mice were euthanized by CO2 inhalation followed by exsanguination through the vena cava. […] Plasma collected from injected mice was assayed for Factor VII enzyme activity using the Biophen FVII kit from Hyphen Biomedical (catalog number 221304). An assay standard curve was prepared using pooled plasma aliquots from the vehicle control animals. All samples were diluted to fall within the linear range of the standard curve and Factor VII activity relative to control plasma was reported. Lipid nanoparticles comprising lipid compounds of formula (I) and the FVII siRNA duplex sequence listed above were tested in the Factor VII Activity Assay. The results of this assay are given in Table 4 below as a percent knock down of plasma Factor VII enzyme activity at a dose of 0.3 mg/kg and 0.03 mg/kg.

Data set [3] can be described thus: Polydispersity index (PDI) of lipid nanoparticle (dynamic light scattering). The class given is physicochemical. The procedure:
Unless indicated otherwise, all PDIs referred to herein are the PDI of the fully formed nanoparticle, as measured by dynamic light scattering on a Malvern Zetasizer. The nanoparticle sample was diluted in phosphate buffered saline (PBS) so that the count rate was approximately 200-400 kcts. The data is presented in Tables 4 and 5 as a weighted average of the intensity measure.

Data set [4] in a line: Particle size of lipid nanoparticle (dynamic light scattering, Malvern Zetasizer). The class given is physicochemical. An excerpt: The lipid nanoparticles have a size of about 1 to about 2,500 nm, about 1 to about 1,500 nm, about 1 to about 1,000 nm, in a sub-embodiment about 50 to about 600 nm, in a sub-embodiment about 50 to about 400 nm, in a sub-embodiment about 50 to about 250 nm, and in a sub-embodiment about 50 to about 150 nm. Unless indicated otherwise, all sizes referred to herein are the average sizes (diameters) of the fully formed nanoparticle, as measured by dynamic light scattering on a Malvern Zetasizer. The nanoparticle sample is diluted in phosphate buffered saline (PBS) so that the count rate is approximately 200-400 kcts. The data is presented as a weighted average of the intensity measure. Unless indicated otherwise, all particle size measurements referred to in Tables 4 and 5 are the Z-average particle size of the fully formed nanoparticle, as measured by dynamic light scattering on a Malvern Zetasizer. The nanoparticle sample was diluted in phosphate buffered saline (PBS) so that the count rate is approximately 200-400 kcts.

The test system of data set [5] is respiratory syncytial virus F protein. The data set is described as follows: Immunization studies, anti-RSV-F titers. The class given is in vivo. The settings on record: anti-RSV-F titer; BALB/c; course A = days 0 & 21; 4 weeks after second dose; liposomes with 0.1 μg vA317 replicon (naked: 1 μg). The protocol: BALB/c were immunized with liposomes comprising DSPC, cholesterol, and various lipids of the invention (or, for comparison, the cationic lipid 1,2-dilinoleyloxy-N,N-dimethyl-3-aminopropane or ‘DLinDMA’). The liposomes encapsulated 0.1 μg of “vA317” self-replicating RNA replicon which encodes respiratory syncytial virus F protein (see WO2012/031043). […] Doses were given either on days 0 & 21 or days 0 & 42. Immune responses were assessed 2 weeks after each dose (2wp1, 2wp2), and in some cases also at 4 weeks after the second dose (4wp2).

[6] abbreviates: LNP Chol/DSPC/PEG-DMG 45/44/9/2.
The mark [7] stands for this setting: FVII siRNA LNP, Chol/DSPC/S010, molar ratio 45/44/9/2.
The mark [8] stands for this setting: FVII siRNA LNP, Chol/DSPC/S010, molar ratio 45/44/9/2, Z-average.
Setting [9] is: PLK1-424 siRNA LNP, Chol/DSPC/S010 45/44/9/2.

Where “and” joins values, the source holds several entries; their conditions need not be identical. Equal values may be shown once.

For orientation: pKa means the pH at which an ionisable group is half protonated. In the case of `CCCCC/C=C\C/C=C\CCCCCCCC(=O)OCCCCOc1cc(CCCN2CCOCC2)cc(OCCCCOC(=O)CCCCCCC/C=C\C/C=C\CCCCC)c1` [Ex. 122, (9Z,9′Z,12Z,12′Z)-((5-(3-morpholinopropyl)-1,3-phenylene)bis(oxy))bis(butane-4,1-diyl)bis(octadeca-9,12-dienoate)], the pKa in data set [1] was 5.06.
Still for that read-out and setting: with `CCCCCCCCCC(=O)OCCCCCCCCOc1cc(COC(=O)CCN(C)C)cc(OCCCCCCCCOC(=O)CCCCCCCCC)c1` [Ex. 123] the figure was 6.08.
With `CCCCC/C=C\C/C=C\CCCCCCCC(=O)OCCCCOc1cc(CCCN2CCCCC2)cc(OCCCCOC(=O)CCCCCCC/C=C\C/C=C\CCCCC)c1` [Ex. 120, (9Z,9′Z,12Z,12′Z)-((5-(3-(piperidin-1-yl)propyl)-1,3-phenylene)bis(oxy))bis(butane-4,1-diyl)bis(octadeca-9,12-dienoate)], in data set [1], the pKa stood at 6.31. Also, the “KD FVII 0.03 mg/kg” value in data set [2] (setting [6]) was 83.7%.
For the molecule `CCCCCCCC(=O)OCC(COC(=O)CCCCCCC)OCCCCOc1cc(CN(C)C)cc(OCCCCOC(COC(=O)CCCCCCC)COC(=O)CCCCCCC)c1` [Ex. 125, ((((5-((dimethylamino)methyl)-1,3-phenylene)bis(oxy))bis(butane-4,1-diyl))bis(oxy))bis(propane-3,2,1-triyl)tetraoctanoate], in data set [1], the pKa was 5.75.
With `CCCCC/C=C\C/C=C\CCCCCCCC(=O)OCCCCOc1cc(CN(C)C)cc(OCCCCOC(=O)CC(CCCCCCCC)CCCCCCCC)c1` [Ex. 109, (9Z,12Z)-4-(3-((dimethylamino)methyl)-5-(4-((3-octylundecanoyl)oxy)butoxy)phenoxy)butyl octadeca-9,12-dienoate], the PDI in data set [3] (setting [7]) came to 0.09. The “Size (nm)” value in data set [4] (setting [8]) is listed as 91.98 nm. In data set [2] (LNP Chol/DSPC/S010 45/44/9/2), the “KD FVII 0.03 mg/kg” value amounted to 68.97%.
`CCCCCCC(CCCCCC)CCCCCC(=O)OCCCCOc1cc(CN(C)C)cc(OCCCCOC(=O)CCCCCC(CCCCCC)CCCCCC)c1` [Ex. 113, ((5-((dimethylamino)methyl)-1,3-phenylene)bis(oxy))bis(butane-4,1-diyl)bis(7-hexyltridecanoate)]: in data set [1], the pKa was 6.03. Moreover, the “KD FVII 0.03 mg/kg” value in data set [2] (setting [6]) was 57.6%.
With `CCCCC/C=C\C/C=C\CCCCCCCCOc1cc(COC(=O)CCN(C)C)cc(OCCCCCCCC/C=C\C/C=C\CCCCC)c1` [Example 14, 3,5-bis((9Z,12Z)-octadeca-9,12-dien-1-yloxy)benzyl 3-(dimethylamino)propanoate], in data set [5], the “4wp2 pool 1” value is 13687 and 21375; the “4wp2 pool 2” value is 18851 and 21347. The PDI in data set [3] (setting [7]) was 0.059. The “Size (nm)” value in data set [4] (setting [8]) turned out to be 81.74 nm.
As for `CCCCC/C=C\CC=CCCCCCCCC(=O)OCCCCOc1cc(CN(C)C)cc(OCCCCOC(=O)CCCCCCCC=CC/C=C\CCCCC)c1C` [Example 51, (9Z,9′Z,12Z,12′Z)-((5-((dimethylamino)methyl)-2-methyl-1,3-phenylene)bis(oxy))bis(butane-4,1-diyl)bis(octadeca-9,12-dienoate)], in data set [1], the pKa was determined as 5.91.
For the molecule `CCCCC/C=C\C/C=C\CCCCCCCC(=O)OCCCOc1cc(CN(C)C)cc(OCCCOC(=O)CC(CCCCCCCC)CCCCCCCC)c1` [Ex. 97, (9Z,12Z)-3-(3-((dimethylamino)methyl)-5-(3-((3-octylundecanoyl)oxy)propoxy)phenoxy)propyl octadeca-9,12-dienoate], the PDI in data set [3] (setting [7]) came out at 0.106. Besides, the “Size (nm)” value in data set [4] (setting [8]) turned out to be 98.01 nm.
As for `CCCCCCCCCC(=O)OCCCCCCCCOc1cc(COC(=O)CCCN(C)C)cc(OCCCCCCCCOC(=O)CCCCCCCCC)c1` [Ex. 124, ((5-(((4-(dimethylamino)butanoyl)oxy)methyl)-1,3-phenylene)bis(oxy))bis(octane-8,1-diyl)bis(decanoate)], the pKa in data set [1] was 7.11.
Turning to `CCCCCCCCOC(=O)CCCCCCCC(=O)OCCCOc1cc(CN(C)C)cc(OCCCOC(=O)CCCCCCCC(=O)OCCCCCCCC)c1` [Ex. 98, O′^1,O^1-(((5-((dimethylamino)methyl)-1,3-phenylene)bis(oxy))bis(propane-3,1-diyl)) 9-dioctyl dinonanedioate], in data set [3] (setting [7]), the PDI stood at 0.096. Besides, the “Size (nm)” value in data set [4] (setting [8]) is given as 164.6 nm.
With `CCCCCCCC(CCCCCCC)CCCC(=O)OCc1cc(COC(=O)CCCC(CCCCCCC)CCCCCCC)cc(CN(C)C)c1` [Ex. 117, (5-((dimethylamino)methyl)-1,3-phenylene)bis(methylene)bis(5-heptyldodecanoate)], the pKa in data set [1] was 5.46.
Still for that read-out and setting: the same measure for `CCCCCCCC(=O)OCCCCCCCCCCOc1cc(CN(C)C)cc(OCCCCCCCCCCOC(=O)CCCCCCC)c1OCCCCCCCCCCOC(=O)CCCCCCC` [Ex. 99, ((5-((dimethylamino)methyl)benzene-1,2,3-triyl)tris(oxy))tris(decane-10,1-diyl)trioctanoate]: 5.75.
Take `CCCCC/C=C\C/C=C\CCCCCCCCOc1cc(COC(=O)CCN(C)C)cc(OCCCCCCCC/C=C\C/C=C\CCCCC)n1` [Example 31, (2,6-bis((9Z,12Z)-octadeca-9,12-dien-1-yloxy)pyridin-4-yl)methyl 3-(dimethylamino)propanoate]: the PDI in data set [3] (setting [7]) is given as 0.049. The “Size (nm)” value in data set [4] (setting [8]) worked out at 81.16 nm.
With `CCCCC/C=C\C/C=C\CCCCCCCCOC(=O)CCC(=O)OCc1cc(COC(=O)CCC(=O)OCCCCCCCC/C=C\C/C=C\CCCCC)cc(CN(C)C)c1` [Example 77, O,O′-((5-((dimethylamino)methyl)-1,3-phenylene)bis(methylene))di((9Z,12Z)-octadeca-9,12-dien-1-yl)disuccinate], in data set [3] (setting [7]), the PDI was 0.014. The “Size (nm)” value in data set [4] (setting [8]) is reported as 154.1 nm.
Take `CCCCCCCC/C=C\CCCCCCCCOc1cc(CN(C)C)cc(OCCCCCCCC/C=C\CCCCCCCC)c1` [Example 1, 1-(3,5-bis((Z)-octadec-9-en-1-yloxy)phenyl)-N,N-dimethylmethanamine]: the PDI was found to be 0.05 in data set [3] (FVII siRNA LNP, Chol/DSPC/PEG-DMG, molar ratio 45/44/9/2); 0.124 in data set [3] (setting [7]); 0.152 in data set [3] (setting [9]). Further, the “Size (nm)” value in data set [4] (FVII siRNA LNP, Chol/DSPC/PEG-DMG, molar ratio 45/44/9/2, Z-average) is 98.2 nm; in data set [4] (setting [8]), 87.16 nm; in data set [4] (setting [9]) it was 74.56 nm. For the same molecule, the “KD FVII 0.03 mg/kg” value in data set [2] (LNP Chol/DSPC/S010 45/44/9/2) stood at 30.8%. In addition, the “KD FVII 0.3 mg/kg” value in data set [2] (single IV dose 0.3 mg/kg, LNP Chol/DSPC/PEG-DMG 45/44/9/2) is reported as 75.1%.

These data come from US10124065B2, “Lipids and lipid compositions for the delivery of active agents” (Novartis AG, priority 2013, dated 2018).
